The record followed here is patent US10005735B2, “Inhibitors of RPN11” (California Institute of Technology, priority 2015, dated 2018).

The target of experiment [1] is T1, Rpn11 (Homo sapiens (Human), UniProt O00487). Put plainly: Rpn11 activity assay (fluorescence polarization, Ub4-pepOG cleavage by 26S proteasome). To be noted: for Rpn11 assay activity (in words): screening, compared with 8TQ. The class given is biochemical. An excerpt: Candidate compounds according to embodiments of the present invention were synthesized as described herein. […] In brief, this Rpn11 bioassay employs a fluorescent polarization readout based on the ability of the 26S proteasome to cleave the protein substrate including four tandem ubiquitin proteins fused to a peptide having a unique cysteine labeled with a fluorophore. Cleavage of this substrate by Rpn11 at the junction between the fourth ubiquitin and the peptide, releases the low molecular weight fluorescent peptide. Accordingly, inhibition of fluorescence correlates with inhibition of Rpn11. Inhibition is reported as the half maximal inhibitory concentration (IC50) for the candidate compound.
Rpn11 Activity Assay. […] In brief, in order to measure the Rpn11 activity, a synthetic peptide substrate, termed Ub4-pepOG, was engineered. […] Peptide substrate Ub4-pepOG consists of only 30 amino acids and therefore the decrease of polarization is mainly from deubiquitination but not the proteolysis of the peptide. Fluorescence polarization assay was performed in a low-volume 384 well solid black plate where the components are added in the follow sequence: 1) 5 μl compound in 3% DMSO or 3% DMSO control 2) 5 μl 26S proteasome (Enzo Life Sciences Inc, NY). […] Fluorescence polarization is measured using a PHERAstar (BMG labtech, Ortenberg, Germany) plate reader with excitation of 480 nm and emission of 520 nm filter set. […] Rpn11 activity was normalized to DMSO control and fitted using does-response curve.

Another experiment concerns the target Csn5 (Homo sapiens (Human), UniProt Q92905). Put plainly: Csn5 activity assay (fluorescence polarization, SCF^skp2-Nedd8OG, COP9 Signalosome Complex). It counts as biochemical. To be noted: Table 2. As to the method:
Csn5 Activity Assay. […] In brief, a fluorescent substrate termed SCF^skp2-Nedd8OG was produced to measure CSN5 activity in vitro. This assay measures the decrease in fluorescence polarization due to the decrease in apparent molecular weight of Oregon Green (OG) fluorophore (from the ˜175 kDa substrate to ˜9 kDa Nedd8OG) as a result of Csn5-mediated cleavage of the isopeptide bond that links Nedd8OG to SCF^Skp2. The assay was performed in a low-volume 384 well solid black plate comprising equal volumes of compound, substrate (SCF^skp2-Need8OG) and enzyme (purified COP9 Signalosome Complex, CSN). Fluorescence polarization was recorded using the same setting as for the Rpn11 activity assay.

The target in the next experiment is AMSH (Homo sapiens (Human), UniProt O95630). Put plainly: AMSH activity assay (DiUb^K63TAMRA cleavage, fluorescence). It counts as biochemical. As to conditions: Table 2. The source says:
AMSH Activity Assay. AMSH is known to selectively cleave ubiquitin chains in which the ubiquitins are joined via K63 of the proximal ubiquitin linked by an isopeptide bond to the carboxy terminus of the distal ubiquitin. […] In brief, DiUb^K63TAMRA was labeled with quench pairs TAMRA/QXL.

Experiment [2] has as its target T1, Rpn11. Kind of experiment: Rpn11 activity assay (fluorescence polarization, Ub4-pepOG cleavage by 26S proteasome). The class given is biochemical. To be noted: does not inhibit Csn5 or AMSH with the same potency as Rpn11.
Another experiment relates to Ub^G76V-GFP. Put plainly: Reporter degradation assay in Hela cells expressing Ub^G76V-GFP. It counts as cell-based. To be noted: Homo sapiens, after MG132 removal, cycloheximide chase. How it is done: Characterization of the Compound Activity in Cells. […] After 4 hours, MG132 was removed and a cycloheximide (CHX) chase was initiated +/− different concentrations of test compound and the rate of reporter degradation was evaluated by monitoring GFP fluorescence by high throughput microscopy. The rate of fluorescence decrease was normalized to DMSO control and analyzed using does-response equation.

The mark [3] stands for this setting: Table 2, 1 mM DTT in assay reduces disulfides to monomeric active species.
Where [4] appears, read: Table 1, metal binding pharmacophore fragments.

T1 sequence (O00487 whole entry, looked up, the tested form may be a part): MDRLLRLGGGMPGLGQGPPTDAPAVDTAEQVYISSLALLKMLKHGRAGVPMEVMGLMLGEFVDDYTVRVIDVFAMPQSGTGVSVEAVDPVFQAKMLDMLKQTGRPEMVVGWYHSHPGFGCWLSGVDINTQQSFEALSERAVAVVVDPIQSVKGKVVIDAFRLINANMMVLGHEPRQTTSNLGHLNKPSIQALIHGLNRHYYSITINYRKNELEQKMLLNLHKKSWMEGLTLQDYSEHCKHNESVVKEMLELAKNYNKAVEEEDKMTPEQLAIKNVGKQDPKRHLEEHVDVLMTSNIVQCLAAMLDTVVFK
AMSH, sequence (O95630 whole entry): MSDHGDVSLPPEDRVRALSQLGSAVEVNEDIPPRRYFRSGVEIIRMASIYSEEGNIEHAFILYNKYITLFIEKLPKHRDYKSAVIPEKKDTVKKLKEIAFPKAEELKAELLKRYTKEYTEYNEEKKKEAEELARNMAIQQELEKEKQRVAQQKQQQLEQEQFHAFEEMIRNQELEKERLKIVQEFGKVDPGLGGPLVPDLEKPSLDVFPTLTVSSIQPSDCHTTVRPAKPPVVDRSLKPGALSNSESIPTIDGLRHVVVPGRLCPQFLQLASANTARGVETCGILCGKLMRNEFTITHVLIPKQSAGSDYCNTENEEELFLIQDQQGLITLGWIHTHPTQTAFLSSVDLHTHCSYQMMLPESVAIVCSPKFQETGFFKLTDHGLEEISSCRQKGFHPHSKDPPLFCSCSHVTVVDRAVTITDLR

With `O=C(NCc1cccs1)c1ccc2cccc(SSc3cccc4ccc(C(=O)NCc5cccs5)nc34)c2n1` [8,8′-Disulfanediylbis(N-(thiophen-2-ylmethyl)quinoline-2-carboxamide)], the “Rpn11 assay activity (in words)” value at Rpn11 [1] is reported as “less active than 8TQ”.

`O=C(NCc1ccccc1)c1ccc2cccc(SSc3cccc4ccc(C(=O)NCc5ccccc5)nc34)c2n1` [8,8′-Disulfanediylbis(N-benzylquinoline-2-carboxamide)]: the “Rpn11 assay activity (in words)” value on Rpn11 [1] is “less active than 8TQ”.

As to `CNC(=O)c1cnc2c(SSc3cccc4cc(C(=O)NC)cnc34)cccc2c1` [Compound 2, 8,8′-Disulfanediylbis(N-methylquinoline-3-carboxamide)], the 50% inhibitory concentration (IC50) was 68 µM on Csn5 and 4.8 µM at AMSH.

On to `O=C(Nc1nccs1)c1cnc2c(SSc3cccc4cc(C(=O)Nc5nccs5)cnc34)cccc2c1` [Compound 5, 8,8′-Disulfanediylbis(N-(thiazol-2-yl)quinoline-3-carboxamide)], for which the half-inhibitory concentration (IC50) on Csn5 is 32 µM; at AMSH it was 3.3 µM. Also, the “specificity for Rpn11 versus Csn5 and/or AMSH (in words)” value at Rpn11 [2] was “specific inhibitors of Rpn11”.

On to `O=C(NCC1CCCO1)c1cnc2c(SSc3cccc4cc(C(=O)NCC5CCCO5)cnc34)cccc2c1` (stereo not drawn) [Compound 6, 8,8′-Disulfanediylbis(N-((tetrahydrofuran-2-yl)methyl)quinoline-3-carboxamide)], for which the values for the IC50 on Rpn11 [1] (setting [3]), on Csn5 and at AMSH were 4.6 µM, 41.3 µM and 6.8 µM, respectively.

In the case of `O=C(NCc1ccco1)c1cnc2c(SSc3cccc4cc(C(=O)NCc5ccco5)cnc34)cccc2c1` [Compound 7, 8,8′-Disulfanediylbis(N-(furan-2-ylmethyl)quinoline-3-carboxamide)], the values for the half-maximal inhibitory concentration (IC50) against Rpn11 [1] (setting [3]), against Csn5 and at AMSH were 0.9 µM, 0.2 µM and 0.9 µM, respectively.

As to `O=C(NCc1cccs1)c1cnc2c(SSc3cccc4cc(C(=O)NCc5cccs5)cnc34)cccc2c1` [Compound 8, 8,8′-Disulfanediylbis(N-(thiophen-2-ylmethyl)quinoline-3-carboxamide)], the IC50 on Rpn11 [1] (setting [3]) turned out to be 0.8 µM; on Csn5 it was 16 µM; against AMSH, 1.3 µM.

As to `Sc1cccc2cccnc12` [Compound 8TQ, 8-thioquinoline, reference compound], the half-maximal inhibitory concentration (IC50) on Rpn11 [1] (setting [4]) was determined as 2.8 ± 0.35 µM. At Rpn11 [1], the “Rpn11 assay activity (in words)” value is on record as “highly potent fragment”.

On Rpn11 [1] (setting [4]), `Sc1ccnc2cccnc12` [Compound 8e, 1,5-Naphthyridine-4-thiol] registered a half-inhibitory concentration (IC50) of 15 µM.

`O=C(NCc1nccs1)c1cnc2c(SSc3cccc4cc(C(=O)NCc5nccs5)cnc34)cccc2c1` [Compound 9, 8,8′-Disulfanediylbis(N-(thiazol-2-ylmethyl)quinoline-3-carboxamide)]: the IC50 is 23 µM at Csn5 and 7.8 µM on AMSH. The “specificity for Rpn11 versus Csn5 and/or AMSH (in words)” value on Rpn11 [2] was “specific inhibitors of Rpn11”.

For `Cc1ccc2cccc(S)c2n1` [Compound 9c, 2-Methylquinoline-8-thiol], on Rpn11 [1], the “Rpn11 assay activity (in words)” value is listed as “less active than 8TQ”.

Consider `O=C(NCCc1ccco1)c1cnc2c(SSc3cccc4cc(C(=O)NCCc5ccco5)cnc34)cccc2c1` [Compound 10, 8,8′-Disulfanediylbis(N-(2-(furan-2-yl)ethyl)quinoline-3-carboxamide)], for which the IC50 at Csn5 came out at 6.9 µM; against AMSH, 1.7 µM; in the experiment on Ub^G76V-GFP, 1.4 µM.

For the molecule `O=C(NCCc1cccs1)c1cnc2c(SSc3cccc4cc(C(=O)NCCc5cccs5)cnc34)cccc2c1` [Compound 11, 8,8′-Disulfanediylbis(N-(2-(thiophen-2-yl)ethyl)quinoline-3-carboxamide)], the values for the IC50 against Rpn11 [1] (setting [3]), against Csn5 and on AMSH were 0.3 µM, 4 µM and 1.3 µM, respectively. Moreover, the “specificity for Rpn11 versus Csn5 and/or AMSH (in words)” value at Rpn11 [2] is on record as “specific inhibitors of Rpn11”.

As for `O=C(NCCc1nccs1)c1cnc2c(SSc3cccc4cc(C(=O)NCCc5nccs5)cnc34)cccc2c1` [Compound 12, 8,8′-Disulfanediylbis(N-(2-(thiazol-2-yl)ethyl)quinoline-3-carboxamide)], the concentration for half-maximal inhibition (IC50) against Csn5 was 30 µM; with Ub^G76V-GFP it was 0.57 µM. Besides, the “specificity for Rpn11 versus Csn5 and/or AMSH (in words)” value at Rpn11 [2] is recorded as “specific inhibitors of Rpn11”.

Take `O=C(NCc1ccccn1)c1cnc2c(SSc3cccc4cc(C(=O)NCc5ccccn5)cnc34)cccc2c1` [Compound 13, 8,8′-Disulfanediylbis(N-(pyridin-2-ylmethyl)quinoline-3-carboxamide)]: the IC50 is 3.9 µM at Rpn11 [1] (setting [3]), 56.7 µM against Csn5, 16.7 µM on AMSH and over 10 µM in the experiment with Ub^G76V-GFP.

As to `O=C(NCc1cccnc1)c1cnc2c(SSc3cccc4cc(C(=O)NCc5cccnc5)cnc34)cccc2c1` [Compound 14, 8,8′-Disulfanediylbis(N-(pyridin-3-ylmethyl)quinoline-3-carboxamide)], the IC50 at Rpn11 [1] (setting [3]) was 3.1 µM; on Csn5, 128 µM; against AMSH, 3.52 µM; in the experiment on Ub^G76V-GFP it was over 10 µM.

With `O=C(O)c1ccc2cccc(SSc3cccc4ccc(C(=O)O)nc34)c2n1` [Compound 14b, 8,8′-Disulfanediylbis(quinoline-2-carboxylic acid)], the “Rpn11 assay activity (in words)” value at Rpn11 [1] was “less active than 8TQ”.

In the case of `O=C(NCc1ccccc1)c1cnc2c(SSc3cccc4cc(C(=O)NCc5ccccc5)cnc34)cccc2c1` [Compound 16, 8,8′-Disulfanediylbis(N-benzylquinoline-3-carboxamide)], the 50% inhibitory concentration (IC50) is 1.1 µM on Rpn11 [1] (setting [3]), 11 µM against Csn5, 15 µM against AMSH and over 10 µM in the experiment with Ub^G76V-GFP.

On to `O=C(NCc1ccc2c(c1)OCO2)c1cnc2c(SSc3cccc4cc(C(=O)NCc5ccc6c(c5)OCO6)cnc34)cccc2c1` [Compound 20, 8,8′-Disulfanediylbis(N-(benzo[d][1,3]dioxol-5-ylmethyl)quinoline-3-carboxamide)], for which the IC50 was 0.9 µM on Rpn11 [1] (setting [3]), 7 µM against Csn5 and over 10 µM with Ub^G76V-GFP.

For the molecule `O=C(NCc1ccc(N2CCOCC2)cc1)c1cnc2c(SSc3cccc4cc(C(=O)NCc5ccc(N6CCOCC6)cc5)cnc34)cccc2c1` [Compound 21, 8,8′-Disulfanediylbis(N-(4-morpholinobenzyl)quinoline-3-carboxamide)], the IC50 on Rpn11 [1] (setting [3]) was 0.8 µM; in the experiment with Ub^G76V-GFP it was over 10 µM.

For the molecule `O=C(NCCN1CCOCC1)c1cnc2c(SSc3cccc4cc(C(=O)NCCN5CCOCC5)cnc34)cccc2c1` [Compound 22, 8,8′-Disulfanediylbis(N-(2-morpholinoethyl)quinoline-3-carboxamide)], the half-maximal inhibitory concentration (IC50) is 6.4 µM against Rpn11 [1] (setting [3]), 99 µM against Csn5, 25.4 µM against AMSH and over 10 µM with Ub^G76V-GFP.

On to `O=C(CCCC[C@@H]1SC[C@@H]2NC(=O)N[C@@H]21)NCCOCCOCCOCCNC(=O)c1cnc2c(S)cccc2c1` [Compound 32], for which the half-inhibitory concentration (IC50) at Rpn11 [1] (setting [3]) was 0.4 µM; against Csn5 it was 13.8 µM; at AMSH, 0.4 µM; in the experiment on Ub^G76V-GFP, 4.1 µM.

Turning to `COC(=O)c1ccc2cccc(SSc3cccc4ccc(C(=O)OC)nc34)c2n1` [Dimethyl 8,8′-disulfanediylbis(quinoline-2-carboxylate)], at Rpn11 [1], the “Rpn11 assay activity (in words)” value is “less active than 8TQ”.

As for `Nc1cccc2cccnc12` [reference compound], on Rpn11 [1] (setting [4]), the IC50 is over 100 µM.

`Sc1cccc2ccccc12` [reference compound] yielded a 50% inhibitory concentration (IC50) at Rpn11 [1] (setting [4]) of over 100 µM.

Turning to `CSc1cccc2cccnc12` [reference compound], on Rpn11 [1] (setting [4]), the IC50 is over 100 µM.

At Rpn11 [1] (setting [4]), `Cc1cccc2cccnc12` [reference compound] displayed a half-maximal inhibitory concentration (IC50) of over 100 µM.

The molecule `Sc1cccc2ncccc12` [reference compound] displayed a 50% inhibitory concentration (IC50) at Rpn11 [1] (setting [4]) of over 100 µM.

In the case of `Oc1cccc2cccnc12` [reference compound], the half-inhibitory concentration (IC50) at Rpn11 [1] (setting [4]) is over 100 µM.
